The data set deals with L6 rat myoblasts. Briefly: OCR Seahorse assay (oxygen consumption rate, mitochondrial uncoupling). The note with it: for % of BAM15 OCR / uncoupling (OCR) activity in words / cellular toxicity in OCR assay: L6 myoblasts; for % of BAM15 OCR / Emax at 200 µM: integrated area under OCR dose curve above baseline relative to BAM15 of same experiment; for Emax at 200 µM: L6, read-out: % of BAM15 OCR, L6 myoblasts; for cellular toxicity in OCR assay: at higher concentrations.

[1] abbreviates: NA = No Activity, highest tested concentration 200 μM.
[2] abbreviates: OCR in L6 myoblasts, NA = No Activity, highest tested concentration 200 μM.
Setting [3] is: Rattus norvegicus, NA = No Activity, highest tested concentration 200 μM.

Method: With 7 and 9 derivatives in hand, we screened for mitochondrial uncoupling activity as a function of oxygen consumption rate (OCR). […] OCR was measured using an Agilent Seahorse XF24 or XFe96 Analyzer (Agilent Technologies, Santa Clara, CA). L6 myoblasts were seeded in a Seahorse 24 or 96-well tissue culture plate at a density of 3.5 × 10^4 cells/well. The cells were then allowed to adhere overnight. […] Compounds were injected during the assay, and OCR was measured using 2 min measurement periods. Cells were treated with a single drug concentration per well and measured over a 90 min period. Two wells were used per condition and, where applicable, results from multiple plates were averaged together. The first three measurements after injection for each concentration were averaged to produce a dose curve. […] AUC values were also calculated using the same software.

Broadly, the EC50 is the midpoint of the concentration-response curve. Read a high EC50 as a less potent agent. As to “6-((4-Butoxyphenyl)amino)-[1,2,5]oxadiazolo[3,4-b]pyridin-7-ol [7f]”, the “% of BAM15 OCR” value under setting [1] turned out to be 20%. In addition, the EC50 under setting [2] was found to be 6 µM. The corresponding values for “6-([1,1′-Biphenyl]-2-ylamino)-[1,2,5]oxadiazolo[3,4-b]pyridin-7-ol [7aj]” are 20% and 6 ± 1.2 µM.

On to `Oc1c(Nc2ccccc2)cnc2nonc12` [7a, 6-(Phenylamino)-[1,2,5]oxadiazolo[3,4-b]pyridin-7-ol], for which a half-maximal response (Rattus norvegicus, L6) (EC50) required 59 ± 3.4 µM. Besides, under setting [3], the Emax at 200 µM turned out to be 40%. The corresponding values for `Oc1c(Nc2cccc(Cl)c2F)cnc2nonc12` [7aa, 6-((3-Chloro-2-fluorophenyl)amino)-[1,2,5]oxadiazolo[3,4-b]pyridin-7-ol] are 32 ± 1.9 µM and 68%.

For `Oc1c(Nc2cccc(C(F)(F)F)c2F)cnc2nonc12` [7ab, 6-((2-Fluoro-3-(trifluoromethyl)phenyl)amino)-[1,2,5]oxadiazolo[3,4-b]pyridin-7-ol], where the note is “Rattus norvegicus, L6”, a half-maximal response (EC50) required 43 ± 5.2 µM. Also, the Emax at 200 µM under setting [3] worked out at 71%. Compound `Oc1c(Nc2cc(C(F)(F)F)ccc2F)cnc2nonc12` [7ac, 6-((2-Fluoro-5-(trifluoromethyl)phenyl)amino)-[1,2,5]oxadiazolo[3,4-b]pyridin-7-ol] registered a concentration giving a half-maximal response (EC50) (Rattus norvegicus, L6) of 11 ± 6.7 µM. For the same compound, under setting [3], the Emax at 200 µM came to 55%. For `Oc1c(Nc2c(F)cccc2C(F)(F)F)cnc2nonc12` [7ad, 6-((2-Fluoro-6-(trifluoromethyl)phenyl)amino)-[1,2,5]oxadiazolo[3,4-b]pyridin-7-ol], in that order: 28 ± 3.9 µM and 55%. Regarding `Oc1c(Nc2cc(C(F)(F)F)c(F)cc2F)cnc2nonc12` [7ae, 6-((2,4-Difluoro-5-(trifluoromethyl)phenyl)amino)-[1,2,5]oxadiazolo[3,4-b]pyridin-7-ol], under “Rattus norvegicus, L6”, the 50% effective concentration (EC50) was found to be 40 ± 4.5 µM. Also, the Emax at 200 µM under setting [3] is 48%. For `Oc1c(Nc2cc(F)ccc2C(F)(F)F)cnc2nonc12` [7af, 6-((5-Fluoro-2-(trifluoromethyl)phenyl)amino)-[1,2,5]oxadiazolo[3,4-b]pyridin-7-ol], in that order: 25 ± 12 µM and 54%. The corresponding values for `Oc1c(Nc2cc(F)cc(C(F)(F)F)c2)cnc2nonc12` [7ag, 6-((3-Fluoro-5-(trifluoromethyl)phenyl)amino)-[1,2,5]oxadiazolo[3,4-b]pyridin-7-ol] are 40 ± 0.9 µM and 38%.

For `Oc1c(Nc2ccc(-c3ccccc3)cc2F)cnc2nonc12` [7ah, 6-((3-Fluoro-[1,1′-biphenyl]-4-yl)amino)-[1,2,5]oxadiazolo[3,4-b]pyridin-7-ol], it took 2 ± 0.5 µM to reach a half-maximal effect (Rattus norvegicus, L6) (EC50). Further, the Emax at 200 µM under setting [3] worked out at 10%. On to `Oc1c(Nc2ccc(-c3ccccc3F)cc2)cnc2nonc12` [7ak, 6-((2′-Fluoro-[1,1′-biphenyl]-4-yl)amino)-[1,2,5]oxadiazolo[3,4-b]pyridin-7-ol], for which the “uncoupling (OCR) activity in words” value is given as “not tolerated”. Take `Oc1c(Nc2ccc(-c3cccc(C(F)(F)F)c3)cc2)cnc2nonc12` [7an, 6-((3′-(Trifluoromethyl)-[1,1′-biphenyl]-4-yl)amino)-[1,2,5]oxadiazolo[3,4-b]pyridin-7-ol]: the “cellular toxicity in OCR assay” value is reported as “showed cellular toxicity at higher concentrations”. The compound also returned an EC50 (Rattus norvegicus, L6) of 0.5 ± 0.1 µM. For the same compound, under setting [3], the Emax at 200 µM is 25%.

Take `Oc1c(Nc2ccc(-c3ccc(C(F)(F)F)cc3)cc2)cnc2nonc12` [7aq, 6-((4′-(Trifluoromethyl)-[1,1′-biphenyl]-4-yl)amino)-[1,2,5]oxadiazolo[3,4-b]pyridin-7-ol]: the “uncoupling (OCR) activity in words” value is on record as “not tolerated” and the “cellular toxicity in OCR assay” value was “exhibited toxicity”.

In the case of `Oc1c(Nc2ccc(-c3ccc(C(F)(F)F)nc3)cc2)cnc2nonc12` [7ar, 6-((4-(6-(Trifluoromethyl)pyridin-3-yl)phenyl)amino)-[1,2,5]oxadiazolo[3,4-b]pyridin-7-ol], where the note is “Rattus norvegicus, L6”, the concentration for a half-maximal effect (EC50) was 7 ± 1.9 µM. Also, under setting [3], the Emax at 200 µM was 17%. For `Oc1c(Nc2ccc(-c3cc(C(F)(F)F)cc(C(F)(F)F)c3)cc2)cnc2nonc12` [7aw, 6-((3′,5′-Bis(trifluoromethyl)-[1,1′-biphenyl]-4-yl)amino)-[1,2,5]oxadiazolo[3,4-b]pyridin-7-ol], under “Rattus norvegicus, L6”, the EC50 came to 41 ± 4.9 µM. Further, under setting [3], the Emax at 200 µM came out at 20%. `Oc1c(Nc2ccc3ccccc3c2)cnc2nonc12` [7ax, 6-(Naphthalen-2-ylamino)-[1,2,5]oxadiazolo[3,4-b]pyridin-7-ol] had an EC50 (Rattus norvegicus, L6) of 13 ± 1.2 µM. The Emax at 200 µM under setting [3] is 48%. In turn, `Cc1ccc(Nc2cnc3nonc3c2O)cc1` [7b, 6-(p-Tolylamino)-[1,2,5]oxadiazolo[3,4-b]pyridin-7-ol] returned a 50% effective concentration (EC50) (Rattus norvegicus, L6) of 49 µM. Moreover, the Emax at 200 µM under setting [3] amounted to 38%. The corresponding values for `CCc1ccc(Nc2cnc3nonc3c2O)cc1` [7c, 6-((4-Ethylphenyl)amino)-[1,2,5]oxadiazolo[3,4-b]pyridin-7-ol] are 14 ± 1.7 µM and 50%. Consider `CCCCc1ccc(Nc2cnc3nonc3c2O)cc1` [7d, 6-((4-Butylphenyl)amino)-[1,2,5]oxadiazolo[3,4-b]pyridin-7-ol], for which, under setting [3], the Emax at 200 µM stood at 19%. Take `CC(C)(C)c1ccc(Nc2cnc3nonc3c2O)cc1` [7e, 6-((4-(tert-Butyl)phenyl)amino)-[1,2,5]oxadiazolo[3,4-b]pyridin-7-ol]: the midpoint of the response (Rattus norvegicus, L6), the EC50, lay at 2 ± 0.4 µM. Further, the Emax at 200 µM under setting [3] worked out at 7%. The corresponding values for `CC(C)(C#N)c1ccc(Nc2cnc3nonc3c2O)cc1` [7g, 2-(4-((7-Hydroxy-[1,2,5]oxadiazolo[3,4-b]pyridin-6-yl)amino)phenyl)-2-methylpropanenitrile] are greater than 100 µM and 10%. On to `Oc1c(Nc2ccc(SC(F)(F)F)cc2)cnc2nonc12` [7h, 6-((4-((Trifluoromethyl)thio)phenyl)amino)-[1,2,5]oxadiazolo[3,4-b]pyridin-7-ol], for which the EC50 (Rattus norvegicus, L6) amounted to 6 ± 0.4 µM. Further, the Emax at 200 µM under setting [3] came out at 38%. As for `Oc1c(Nc2ccc(F)nc2)cnc2nonc12` [7k, 6-((6-Fluoropyridin-3-yl)amino)-[1,2,5]oxadiazolo[3,4-b]pyridin-7-ol], the “uncoupling (OCR) activity in words” value was “inactive”. With `Oc1c(-c2ccc(C(F)(F)F)nc2)cnc2nonc12` [7l, 6-(6-(Trifluoromethyl)pyridin-3-yl)-[1,2,5]oxadiazolo[3,4-b]pyridin-7-ol], the “uncoupling (OCR) activity in words” value was “inactive”.

`Oc1c(Nc2ccccc2F)cnc2nonc12` [7m, 6-((2-Fluorophenyl)amino)-[1,2,5]oxadiazolo[3,4-b]pyridin-7-ol]: the “increase of BAM15 uncoupling capability compared with the nonsubstituted aniline” value (7m versus 7a) is 72%. The compound also yielded an EC50 (Rattus norvegicus, L6) of 32 ± 1.8 µM. Further, the Emax at 200 µM under setting [3] was determined as 69%. The compound `Oc1c(Nc2cccc(F)c2)cnc2nonc12` [7n, 6-((3-Fluorophenyl)amino)-[1,2,5]oxadiazolo[3,4-b]pyridin-7-ol] showed a concentration giving a half-maximal response (EC50) (Rattus norvegicus, L6) of 51 ± 2.6 µM. The Emax at 200 µM under setting [3] is 55%.

Consider `Oc1c(Nc2ccc(F)cc2)cnc2nonc12` [7o, 6-((4-Fluorophenyl)amino)-[1,2,5]oxadiazolo[3,4-b]pyridin-7-ol], for which the EC50 (Rattus norvegicus, L6) is greater than 100 µM. Besides, the Emax at 200 µM under setting [3] is 32%.

As for `Oc1c(Nc2ccccc2Cl)cnc2nonc12` [7p, 6-((2-Chlorophenyl)amino)-[1,2,5]oxadiazolo[3,4-b]pyridin-7-ol], the EC50 (Rattus norvegicus, L6) amounted to 27 ± 1.9 µM. The Emax at 200 µM under setting [3] was found to be 69%.
